Source: paper PMC6044741 (ACS Omega, 2018)
“Also recorded” adds a separate entry of the source.

What was measured:
[1] = listed 15.11.2017 in the ChEMBL; cited from earlier work
[2] = target: T1, human RORγ hybrids of both isoforms 1 and 2 (Homo sapiens, UniProt P51449); test: Human RAR-related Orphan Receptor Gamma Reporter Assay System; format: cell-based; conditions: for RORγt activity in experimental testing (active / inactive): result in words
T1 sequence (P51449 259-518): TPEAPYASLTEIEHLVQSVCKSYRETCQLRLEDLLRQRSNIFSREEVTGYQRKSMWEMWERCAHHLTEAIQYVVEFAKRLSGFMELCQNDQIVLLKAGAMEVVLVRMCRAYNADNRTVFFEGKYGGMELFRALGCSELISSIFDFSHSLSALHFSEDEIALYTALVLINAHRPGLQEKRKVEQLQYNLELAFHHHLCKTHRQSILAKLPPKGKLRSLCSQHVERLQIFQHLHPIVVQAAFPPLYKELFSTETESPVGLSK

Row | SMILES | log P [1] | RORγt activity in experimental testing (active / inactive) [2] | IC50 [2] [µM]
1 | CC(C)CN(Cc1ccc(F)cc1)S(=O)(=O)c1ccc(NC2CCN(S(C)(=O)=O)CC2)nc1 [Compound 3QQ, N-(4-fluorobenzyl)-N-(2-methylpropyl)-6-{[1-(methylsulfonyl)piperidin-4-yl]amino}pyridine-3-sulfonamide] | 2.3 | – | –
2 | O=C(COC(=O)c1cccc(N2C(=O)C3C4c5ccccc5C(c5ccccc54)C3C2=O)c1)c1ccc(Cl)cc1 (stereo not drawn) [Compound 19] | – | activity | –
3 | Cc1cc(C=C2C(=O)NC(=S)N(c3cccc(Br)c3)C2=O)c(C)n1-c1ccc(S(N)(=O)=O)cc1 [Compound 2] | – | active | –
4 | CC1(c2cccc([N+](=O)[O-])c2)Nc2ccccc2C(=O)N1N=Cc1cc(Br)cc(Br)c1O (stereo not drawn) [Compound 34] | – | not a particularly potent inverse agonist | 10
5 | O=C(O)c1ccc(NC(=O)c2cccc(N3C(=O)C4C5c6ccccc6C(c6ccccc65)C4C3=O)c2)cc1 (stereo not drawn) [Compound 21] | – | inactive | –
6 | Cc1ccccc1-c1cc(C(=O)N2CCN(c3cccc(C(F)(F)F)c3)CC2)c2ccccc2n1 [Compound 12] | – | less active | –
7 | Cc1ccc(-c2cc(C(=O)N3CCN(c4cccc(C(F)(F)F)c4)CC3)c3ccccc3n2)o1 [Compound 13] | – | less active | –
8 | O=C(Oc1ccc(N2C(=O)C3C4c5ccccc5C(c5ccccc54)C3C2=O)cc1)c1cccc([N+](=O)[O-])c1 (stereo not drawn) [Compound 20] | – | inactive | –
9 | Cc1ccccc1-c1cc(C(=O)N2CCN(c3ccc([N+](=O)[O-])cc3)CC2)c2ccccc2n1 [Compound 16] | – | either insoluble or inactive | –
10 | Cc1ccc(-c2cc(C(=O)N3CCN(c4ccc(F)cc4)CC3)c3ccccc3n2)cc1 [Compound 17] | – | either insoluble or inactive; also recorded: inactivity | –
11 | O=C(COC(=O)c1cccc(N2C(=O)C3C4c5ccccc5C(c5ccccc54)C3C2=O)c1)c1ccccc1 (stereo not drawn) [Compound 18] | – | activity | –
